# Assay results from patent publication US11565003B2, “Mechanical opening of lipid bilayers by molecular nanomachines” (William Marsh Rice University, priority 2016, dated 2023).
# System: synthetic bilipid vesicles
# Test: BODIPY dye release from synthetic bilipid vesicles upon UV illumination
# Conditions: first 15 minutes of UV exposure, 365 nm
# Experimental: Premixed and dried synthetic phospholipid blend [1,2-dioleoyl-sn-glycero-3-phosphoethanolamine (DOPE): 1,2-dioleoyl-sn-glycero-3-phospho-L-serine (DOPS): 1,2-dioleoyl-sn-glycero-3-phosphocholine (DOPC) at a ratio of 5:3:2] were stored in a −20° C. freezer before use. To prepare the large unilamellar vesicles (LUVs), 5 mL 0.5× phosphate buffered saline (PBS) at pH 7.4 was added to swell the lipids solution (lipid concentration was 0.25 mg/mL). Then 7 μL of 210 μM BODIPY dye and 2 μL of 50 μM 1 (or 16 in the control experiments) were added to the solution. After incubation for 1 hour at room temperature with occasional vortexing, the lipids formed a cloudy suspension. […] The vesicles were then observed using a home-build confocal fluorescence microscope at 488 nm excitation and 535±50 nm emission.
# Due to the highly non-polar nature of compound 1, it prefers to be sorbed in the bilipid membrane (FIG. 3). […] The fluorescence intensity of the BODIPY dye molecules in single vesicles was monitored using a confocal fluorescence microscope by continuously scanning a small area (20×20 μm^2).
# As the UV illumination time increased from 0 to 15 minutes, the fluorescence intensity of the vesicles became dimmer (FIG. 4E). […] The average fluorescence intensity drop of 20 vesicles was 70±6% (mean±standard deviation) in the first 15 minutes of UV exposure. […]
smiles,measurement,value
COc1cc(C#Cc2ccc(C3=C4C(C)=C(C#CC56CC7CC(CC(C7)C5)C6)C(C)=[N+]4[B-](F)(F)n4c(C)c(C#CC56CC7CC(CC(C7)C5)C6)c(C)c43)cc2)c(OC)cc1C#Cc1ccc(C2=C3C(C)=C(C#CC45CC6CC(CC(C6)C4)C5)C(C)=[N+]3[B-](F)(F)n3c(C)c(C#CC45CC6CC(CC(C6)C4)C5)c(C)c32)cc1 [Compound 16],average fluorescence intensity drop of BODIPY in 20 vesicles (mean±standard deviation),9%±20%
